# Literature values, collected in paper PMC5563391 (Investigational new drugs, 2015).
# System: patients with CML or Ph+ ALL
# Settings: phase 1 study; cited from earlier work
structure (smiles),measurement,value
CO[C@@H](C(=O)N1Cc2n[nH]c(NC(=O)c3ccc(N4CCN(C)CC4)cc3)c2C1)c1ccccc1 [danusertib],patients with responses,6 of 23
